Patent US20240287089A1, “Preparation and Uses of 7-Azaindenoisoquinolines” (Purdue Research Foundation, priority 0001, published 2024)
pIC50, pKd: −log10 of the molar value. Where two headings read alike, the source gives them in different places.

Tests used:
[1] = human, 6 h, 1 μM; for % Bound: plasma
Experimental: (§3) Analysis of Plasma Protein Binding and Stability in Human and Mouse Blood Plasma by Equilibrium Dialysis. Frozen plasma (stored at −80° C.) was thawed immediately in a 37° C. water bath. The working solutions of test compound and control compound were prepared in DMSO at 200 μM concentration, and the working solutions were spiked into plasma. The final concentration of compound was 1 μM. The final concentration of DMSO was 0.5%. Ketoconazole was used as positive control in the assay. The dialysis membranes were soaked in ultrapure water for 60 min to separate strips, then in 20% ethanol for 20 min, and then finally in dialysis buffer for 20 min. For equilibrium dialysis, each cell contained plasma sample (150 μL) and was dialyzed against an equal volume of dialysis buffer (PBS). The assay was performed in duplicate. The dialysis plate was sealed and incubated at 37° C. with 5% CO2 at 100 rpm for 6 h. At the end of incubation, samples (50 μL) from both buffer and plasma chambers were transferred to wells of a 96-well plate. Plasma (50 μL) was added to each buffer sample and an equal volume of PBS was added to the collected plasma sample. Cold acetonitrile (400 μL) containing internal standards (IS, 100 nM alprazolam, 200 nM labetalol, 200 nM imipramine and 2 μM ketoprofen) was added to precipitate protein and release compounds. Samples were vortexed for 2 min and centrifuged for 30 min at 3,220 g. An aliquot (100 μL) of the supernatant was diluted with ultra-pure H2O (100 μL), and the mixture was used for LC-MS/MS analysis. For stability determination in plasma, a spiked plasma sample (50 μL) was transferred to a new plate and incubated at 37° C., 5% CO2 for 0 and 6 h. At designated time points, PBS (50 μL) was added and mixed thoroughly, followed by the addition of room temperature quench solution [400 μL of acetonitrile containing internal standards (IS, 100 nM alprazolam, 200 nM labetalol, 200 nM imipramine and 2 μM ketoprofen)] to precipitate protein and release compounds. Samples were vortexed for 2 min and centrifuged for 30 min at 3,220 g. An aliquot (400 μL) of the supernatant was diluted by ultra-pure H2O, and the mixture was used for LC-MS/MS analysis. The concentrations of test compounds in the buffer and plasma chambers were determined from peak area ratios.

RS4;11 = assay: MTS GI50, Myc-dependent panel; type: cell-based; conditions: RS4;11, 72 h, read-out: GI50
Experimental: (§1) Cytotoxicity Results in Myc-dependent Cancer Cell Lines.
(§2) MTS Cell Viability IC50 Assay. Drug solutions for MTS IC50 assays of suspension cell lines were made from DMSO stocks by serial-dilutions in 1×PBS (10010-031, Gibco). To set up treatments, drug solutions were plated in triplicates to 96-well tissue culture plates, to which cell-containing media was added to a total volume of 100 μL/well. 100%-viability controls were untreated cells. 2000 cells/well were plated for all suspension cell lines except 3000 cells/well for KMS-27 and 10000 cells/well for CHLA-32. Blanks were cell-free media. Drug treatments were maintained for 72 hr at 37° C. with 5% CO2. To quantify cells, CellTiter 96 AQueous MTS Reagent Powder (G1111, Promega) was dissolved and mixed with phenazine methosulfate (PMS, Sigma-Aldrich P9625) according to manufacturer's instructions. MTS/PMS mix ([…]) was added to treatment wells, 100%-viability control wells, and blank wells. Colors were developed at 37° C. with 5% CO2 for 4 h and absorbance at 490 nm was measured by BioTek Synergy 4 system. To obtain %-viability, A490 values were corrected by blank subtraction, normalized to 100%-viability control, and averaged. Average %-viabilities were plotted against drug dosages to obtain dose-response curves. […] For adherent cell lines, the MTS IC50 assays were conducted the same way as for suspension cell lines except for cell plating and drug treatment. For cell plating, 50 μL of 2000 cells were plated in triplicates to a 96-well tissue culture plate. Cells were allowed sufficient time to become adherent. Serial-diluted drug solutions were made the same way as in the MTS IC50 assays. To set up treatments, drug solutions were mixed with media to two-fold of the final concentrations, and 50 μL of such drug-media mix was then added to 50 μL of plated cells.

ARD = assay: MTS GI50, Myc-dependent panel; type: cell-based; conditions: ARD, 72 h; read-out: GI50
Experimental: as §1, §2

HL-60 = assay: MTS GI50, Myc-dependent panel; type: cell-based; conditions: HL-60, 72 h, read-out: GI50
Experimental: as §1, §2

K-562 = assay: MTS GI50, Myc-dependent panel; type: cell-based; conditions: K-562, 72 h, read-out: GI50
Experimental: as §1, §2

CHLA-32 = assay: MTS GI50, Myc-dependent panel; type: cell-based; conditions: CHLA-32, 72 h; read-out: GI50
Experimental: as §1, §2

L-363 = assay: MTS GI50, Myc-dependent panel; type: cell-based; conditions: L-363, 72 h, read-out: GI50
Experimental: as §1, §2

TC-32 = assay: MTS GI50, Myc-dependent panel; type: cell-based; conditions: TC-32, 72 h, read-out: GI50
Experimental: as §1, §2

AMO-1 = assay: MTS GI50, Myc-dependent panel; type: cell-based; conditions: AMO-1, 72 h, read-out: GI50
Experimental: as §1, §2

MCF-7 = assay: MTS GI50, Myc-dependent panel; type: cell-based; conditions: MCF-7, 72 h, read-out: GI50
Experimental: as §1, §2

MOLT-4 = assay: MTS GI50, Myc-dependent panel; type: cell-based; conditions: MOLT-4, 72 h, read-out: GI50
Experimental: as §1, §2

RPMI-8226 = assay: MTS GI50, Myc-dependent panel; type: cell-based; conditions: RPMI-8226, 72 h, read-out: GI50
Experimental: as §1, §2

KMS-27 = assay: MTS GI50, Myc-dependent panel; type: cell-based; conditions: KMS-27, 72 h; read-out: GI50
Experimental: as §1, §2

TC-106 = assay: MTS GI50, Myc-dependent panel; type: cell-based; conditions: TC-106, 72 h; read-out: GI50
Experimental: as §1, §2

CHLA-99 = assay: MTS GI50, Myc-dependent panel; type: cell-based; conditions: CHLA-99, 72 h; read-out: GI50
Experimental: as §1, §2

THP-1 = assay: MTS GI50, Myc-dependent panel; type: cell-based; conditions: THP-1, 72 h, read-out: GI50
Experimental: as §1, §2

Kasumi-1 = assay: MTS GI50, Myc-dependent panel; type: cell-based; conditions: Kasumi-1, 72 h, read-out: GI50
Experimental: as §1, §2

TC-71 = assay: MTS GI50, Myc-dependent panel; type: cell-based; conditions: TC-71, 72 h; read-out: GI50
Experimental: as §1, §2

RD-ES = assay: MTS GI50, Myc-dependent panel; type: cell-based; conditions: 72 h, read-out: GI50
Experimental: as §1, §2

MDA-MB-231 = assay: MTS GI50, Myc-dependent panel; type: cell-based; conditions: MDA-MB-231, 72 h, read-out: GI50
Experimental: as §1, §2

SK-N-MC = assay: MTS GI50, Myc-dependent panel; type: cell-based; conditions: 72 h, read-out: GI50
Experimental: as §1, §2

CCRF-CRM = assay: MTS GI50, Myc-dependent panel; type: cell-based; conditions: CCRF-CRM, 72 h; read-out: GI50
Experimental: as §1, §2

[2] = mouse, 6 h, 1 μM; for % Bound: plasma
Experimental: as §3

RAJI lymphoma cells = assay: MTS cell viability IC50 assay; type: cell-based; conditions: 72 h
Outline: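 Raji suspension cells, 2000 per well, were treated in triplicate with 2-2000 nM drug for 72 h at 37° C., 5% CO2. MTS/PMS colour was developed 4 h and A490 read; blank-corrected values were normalized to untreated cells and plotted against dose to derive IC50.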

[3] = biological target: 3′-TAMRA-labeled MycG4 DNA; assay: Fluorescence binding assay; conditions: 20° C., 100 mM K+ buffer, pH 7.0; read-out: Apparent Binding Affinity Kd, app
Experimental: Binding Affinity to the Myc G-Quadruplex. Binding affinity of eight 7-aza-8,9-methylenedioxyindenoisoquinolines to MycG4 was determined using a fluorescence binding assay with a 3′-TAMRA-labeled MycG4 DNA. Monitoring TAMRA emission upon drug titration afforded binding isotherms, from which apparent binding affinities, Kd,app, were derived.
Fluorescence-Based Binding Assays. Fluorescence-based binding assays were performed on a Jasco FP-8300 spectrofluorometer equipped with a temperature controller at 20° C. in a quartz cuvette with a 10 mm path length. 3′-TAMRA-labeled MycG4 DNA (Sigma-Aldrich) was diluted to 20 nM using a 75 mM KCl/25 mM potassium phosphate buffer, pH 7.0. […] Fluorescence intensity at 580 nm, the maximum for the free DNA, was plotted against drug:DNA ratio. The apparent binding dissociation constant, Kd,app, was derived for the binding of each compound. Using OriginPro software (OriginLab Corp., United States) the change in fluorescence intensity was fitted to a one-site binding equation,
where B0 is the initial fluorescence intensity, B is maximum change in fluorescence intensity, R is DNA concentration, and L is drug:DNA ratio.

For `COc1cc2c3c(n(CCCNC(C)C)c(=O)c2cc1OC)-c1nc2c(cc1C3=O)OCO2` [G103, 6-(3-(Isopropylamino)propyl)-2,3-dimethoxy-5H-[1,3]dioxolo [4″,5″:5′,6′]pyrido[3′,2′:4,5]cyclopenta[1,2-c]isoquinoline-5,12(6H)-dione], the “% Recovery” value [1] was 88.05%, the “% Bound” value [1] was 82.60% and the GI50 (RS4;11; Homo sapiens) was 53 nM. It also gave a GI50 (ARD) of 70 nM, a GI50 (HL-60; Homo sapiens) of 328 nM and a GI50 (K-562; Homo sapiens, K562) of 182 nM. It also gave a GI50 (CHLA-32) of 55 nM, a GI50 (L-363; Homo sapiens) of 126 nM and a GI50 (TC-32; Homo sapiens) of 55 nM. For the same compound, the GI50 (AMO-1; Homo sapiens, AMO1) was 317 nM, the GI50 (MCF-7; Homo sapiens, MCF7) was greater than 2000 nM and the GI50 (MOLT-4; Homo sapiens) was 19 nM. It also gave a GI50 (RPMI-8226; Homo sapiens) of 234 nM, a GI50 (KMS-27) of 206 nM and a GI50 (TC-106) of 202 nM. The GI50 (CHLA-99) was 89 nM, the GI50 (THP-1; Homo sapiens) was 602 nM and the GI50 (Kasumi-1; Homo sapiens) was 432 nM. It also gave a GI50 (TC-71) of 153 nM, a GI50 (RD-ES) of 31 nM and a GI50 (MDA-MB-231; Homo sapiens) of 644 nM. For the same compound, the GI50 (SK-N-MC; Homo sapiens) was 150 nM, the GI50 (CCRF-CRM) was 57 nM and the “% Recovery” value [2] was 88.02%. For the same compound, the “% Bound” value [2] was 84.11% and the pIC50 (RAJI lymphoma cells; Homo sapiens, Raji) was 6.78.

In the case of `CCNCCCn1c2c(c3cc(OC)c(OC)cc3c1=O)C(=O)c1cc3c(nc1-2)OCO3` [G104, 6-(3-(Ethylamino)propyl)-2,3-dimethoxy-5H-[1,3]dioxolo[4″,5″:5′,6′]pyrido [3′,2′:4,5]cyclopenta[1,2-c]isoquinoline-5,12(6H)-dione], the pKd [3] was 7.26, the “% Recovery” value [1] was 83.58% and the “% Bound” value [1] was 81.21%. For the same compound, the GI50 (RS4;11; Homo sapiens) was 38 nM, the GI50 (ARD) was 55 nM and the GI50 (HL-60; Homo sapiens) was 270 nM. For the same compound, the GI50 (K-562; Homo sapiens, K562) was 158 nM, the GI50 (CHLA-32) was 33 nM and the GI50 (L-363; Homo sapiens) was 96 nM. It also gave a GI50 (TC-32; Homo sapiens) of 53 nM, a GI50 (AMO-1; Homo sapiens, AMO1) of 184 nM and a GI50 (MCF-7; Homo sapiens, MCF7) greater than 2000 nM. For the same compound, the GI50 (MOLT-4; Homo sapiens) was 13 nM, the GI50 (RPMI-8226; Homo sapiens) was 190 nM and the GI50 (KMS-27) was 141 nM. It also gave a GI50 (TC-106) of 157 nM, a GI50 (CHLA-99) of 58 nM and a GI50 (THP-1; Homo sapiens) of 358 nM. For the same compound, the GI50 (Kasumi-1; Homo sapiens) was 266 nM, the GI50 (TC-71) was 122 nM and the GI50 (RD-ES) was 20 nM. It also gave a GI50 (MDA-MB-231; Homo sapiens) of 476 nM, a GI50 (SK-N-MC; Homo sapiens) of 137 nM and a GI50 (CCRF-CRM) of 49 nM. For the same compound, the “% Recovery” value [2] was 80.60%, the “% Bound” value [2] was 83.44% and the pIC50 (RAJI lymphoma cells; Homo sapiens, Raji) was 6.88.

With `COc1cc2c3c(n(CCCNCCO)c(=O)c2cc1OC)-c1nc2c(cc1C3=O)OCO2` [G105, 6-(3-((2-Hydroxyethyl)amino)propyl)-2,3-dimethoxy-5H-[1,3]dioxolo[4″,5″:5′,6′]pyrido[3′,2′:4,5]cyclopenta[1,2-c]isoquinoline-5,12(6H)-dione] the pKd [3] was 7.01, the “% Recovery” value [1] was 99.38% and the “% Bound” value [1] was 80.88%. For the same compound, the GI50 (RS4;11; Homo sapiens) was 34 nM, the GI50 (ARD) was 121 nM and the GI50 (HL-60; Homo sapiens) was 290 nM. The GI50 (K-562; Homo sapiens, K562) was 196 nM, the GI50 (CHLA-32) was 96 nM and the GI50 (L-363; Homo sapiens) was 154 nM. For the same compound, the GI50 (TC-32; Homo sapiens) was 104 nM, the GI50 (AMO-1; Homo sapiens, AMO1) was 461 nM and the GI50 (MCF-7; Homo sapiens, MCF7) was 1390 nM. The GI50 (MOLT-4; Homo sapiens) was 12 nM, the GI50 (RPMI-8226; Homo sapiens) was 559 nM and the GI50 (KMS-27) was 141 nM. For the same compound, the GI50 (TC-106) was 202 nM, the GI50 (CHLA-99) was 31 nM and the GI50 (THP-1; Homo sapiens) was 300 nM. For the same compound, the GI50 (Kasumi-1; Homo sapiens) was 530 nM, the GI50 (TC-71) was 197 nM and the GI50 (RD-ES) was 22 nM. It also gave a GI50 (MDA-MB-231; Homo sapiens) of 806 nM, a GI50 (SK-N-MC; Homo sapiens) of 173 nM and a GI50 (CCRF-CRM) of 57 nM. For the same compound, the “% Recovery” value [2] was 90.43%, the “% Bound” value [2] was 79.41% and the pIC50 (RAJI lymphoma cells; Homo sapiens, Raji) was 6.83.

`COc1cc2c3c(n(CCCNCCO)c(=O)c2cc1OC)-c1cc2c(cc1C3=O)OCO2` [LMP744] gave a pKd [3] of 7.96, a GI50 (RS4;11) of 30 nM and a GI50 (ARD) of 77 nM. For the same compound, the GI50 (HL-60) was 354 nM, the GI50 (K-562) was 219 nM and the GI50 (CHLA-32) was 156 nM. It also gave a GI50 (L-363) of 119 nM, a GI50 (TC-32) of 121 nM and a GI50 (AMO-1) of 285 nM. It also gave a GI50 (MCF-7) greater than 2000 nM, a GI50 (MOLT-4) of 4 nM and a GI50 (RPMI-8226) of 620 nM. For the same compound, the GI50 (KMS-27) was 190 nM, the GI50 (TC-106) was 277 nM and the GI50 (CHLA-99) was 77 nM. It also gave a GI50 (THP-1) of 305 nM, a GI50 (Kasumi-1) of 721 nM and a GI50 (TC-71) of 244 nM. It also gave a GI50 (RD-ES) of 24 nM, a GI50 (MDA-MB-231) of 968 nM and a GI50 (SK-N-MC) of 237 nM. It also gave a GI50 (CCRF-CRM) of 57 nM and a pIC50 (RAJI lymphoma cells; RAJI) of 6.92.
